Measurements reported in PubChem BioAssay (NCI).
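Cells were grown in 96-well plates and exposed to each compound for 48 hours at five concentrations; endpoints were interpolated linearly between bracketing concentrations, or set to the highest concentration if not reached. Here, GI50 denotes the concentration required for 50% inhibition of growth. TGI is the concentration that stops growth completely.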

How the values were obtained:
Assay in all cases: NCI tumour cell line growth inhibition, 48 h
786-0 renal = tested on: 786-0 renal
A498 renal = tested on: A498 renal
A549 NSCLC = tested on: A549 NSCLC
ACHN renal = tested on: ACHN renal
BT-549 breast = tested on: BT-549 breast
CAKI-1 renal = tested on: CAKI-1 renal
CCRF-CEM leukemia = tested on: CCRF-CEM leukemia
COLO 205 colon = tested on: COLO 205 colon
DU-145 prostate = tested on: DU-145 prostate
EKVX NSCLC = tested on: EKVX NSCLC
HCC-2998 colon = tested on: HCC-2998 colon
HCT-116 colon = tested on: HCT-116 colon
HCT-15 colon = tested on: HCT-15 colon
HL-60(TB) leukemia = tested on: HL-60(TB) leukemia
HOP-62 NSCLC = tested on: HOP-62 NSCLC
HOP-92 NSCLC = tested on: HOP-92 NSCLC
HS 578T breast = tested on: HS 578T breast
HT29 colon = tested on: HT29 colon
IGROV1 ovarian = tested on: IGROV1 ovarian
K-562 leukemia = tested on: K-562 leukemia
KM12 colon = tested on: KM12 colon
LOX IMVI melanoma = tested on: LOX IMVI melanoma
M14 melanoma = tested on: M14 melanoma
MALME-3M melanoma = tested on: MALME-3M melanoma
MCF7 breast = tested on: MCF7 breast
MDA-MB-231 breast = tested on: MDA-MB-231 breast
MDA-MB-435 = tested on: MDA-MB-435
MOLT-4 leukemia = tested on: MOLT-4 leukemia
NCI-H226 lung = tested on: NCI-H226 lung
NCI-H23 lung = tested on: NCI-H23 lung
NCI-H460 lung = tested on: NCI-H460 lung
NCI-H522 lung = tested on: NCI-H522 lung
NCI/ADR-RES ovarian = tested on: NCI/ADR-RES ovarian
OVCAR-4 ovarian = tested on: OVCAR-4 ovarian
OVCAR-5 ovarian = tested on: OVCAR-5 ovarian
OVCAR-8 ovarian = tested on: OVCAR-8 ovarian
PC-3 prostate = tested on: PC-3 prostate
RPMI-8226 leukemia = tested on: RPMI-8226 leukemia
RXF 393 renal = tested on: RXF 393 renal
SF-268 CNS = tested on: SF-268 CNS
SF-295 CNS = tested on: SF-295 CNS
SF-539 CNS = tested on: SF-539 CNS
SK-MEL-2 melanoma = tested on: SK-MEL-2 melanoma
SK-MEL-28 melanoma = tested on: SK-MEL-28 melanoma
SK-MEL-5 melanoma = tested on: SK-MEL-5 melanoma
SK-OV-3 ovarian = tested on: SK-OV-3 ovarian
SN12C renal = tested on: SN12C renal
SNB-19 CNS = tested on: SNB-19 CNS
SNB-75 CNS = tested on: SNB-75 CNS
SR leukemia = tested on: SR leukemia
SW-620 colon = tested on: SW-620 colon
T-47D breast = tested on: T-47D breast
TK-10 renal = tested on: TK-10 renal
U251 CNS = tested on: U251 CNS
UACC-257 melanoma = tested on: UACC-257 melanoma
UACC-62 melanoma = tested on: UACC-62 melanoma
UO-31 renal = tested on: UO-31 renal

In the case of `CCCCCc1ccc(S(=O)(=O)Nc2cc(-c3csc(NC(=O)CN4CCN(C)CC4)n3)ccc2N2CCN(C)CC2)cc1`, the GI50 (786-0 renal) is reported as 0.826 µM, the TGI (786-0 renal) is reported as 1.57 µM and the GI50 (A498 renal) is reported as 2.9 µM. For the same compound, the TGI (A498 renal) was 9.03 µM, the GI50 (A549 NSCLC) was 1.25 µM and the TGI (A549 NSCLC) was 3.72 µM. It also gave a GI50 (ACHN renal) of 1.14 µM, a TGI (ACHN renal) of 2.64 µM and a GI50 (BT-549 breast) of 4.07 µM. It also gave a TGI (BT-549 breast) of 11.1 µM, a GI50 (CAKI-1 renal) of 0.895 µM and a TGI (CAKI-1 renal) of 1.97 µM. It also gave a GI50 (CCRF-CEM leukemia) of 0.792 µM, a TGI (CCRF-CEM leukemia) of 3.38 µM and a GI50 (COLO 205 colon) of 0.924 µM. The TGI (COLO 205 colon) was 1.86 µM, the GI50 (DU-145 prostate) was 1.52 µM and the TGI (DU-145 prostate) was 4.64 µM. For the same compound, the GI50 (EKVX NSCLC) was 1.97 µM, the TGI (EKVX NSCLC) was 7.47 µM and the GI50 (HCC-2998 colon) was 0.877 µM. It also gave a TGI (HCC-2998 colon) of 1.78 µM, a GI50 (HCT-116 colon) of 0.735 µM and a TGI (HCT-116 colon) of 1.49 µM. The GI50 (HCT-15 colon) was 0.733 µM, the TGI (HCT-15 colon) was 1.62 µM and the GI50 (HL-60(TB) leukemia) was 1 µM. For the same compound, the TGI (HL-60(TB) leukemia) was 2.35 µM, the GI50 (HOP-62 NSCLC) was 0.954 µM and the TGI (HOP-62 NSCLC) was 1.99 µM. For the same compound, the GI50 (HOP-92 NSCLC) was 0.909 µM, the TGI (HOP-92 NSCLC) was 3.41 µM and the GI50 (HS 578T breast) was 1.05 µM. It also gave a TGI (HS 578T breast) of 2.42 µM, a GI50 (HT29 colon) of 0.872 µM and a TGI (HT29 colon) of 1.81 µM. For the same compound, the GI50 (IGROV1 ovarian) was 1.12 µM, the TGI (IGROV1 ovarian) was 2.61 µM and the GI50 (K-562 leukemia) was 0.166 µM. It also gave a TGI (K-562 leukemia) of 5.53 µM, a GI50 (KM12 colon) of 1.16 µM and a TGI (KM12 colon) of 2.67 µM. The GI50 (LOX IMVI melanoma) was 0.842 µM, the TGI (LOX IMVI melanoma) was 1.61 µM and the GI50 (M14 melanoma) was 0.895 µM. It also gave a TGI (M14 melanoma) of 1.71 µM, a GI50 (MALME-3M melanoma) of 0.879 µM and a TGI (MALME-3M melanoma) of 1.67 µM. For the same compound, the GI50 (MCF7 breast) was 0.893 µM, the TGI (MCF7 breast) was 1.84 µM and the GI50 (MDA-MB-231 breast) was 0.913 µM. It also gave a TGI (MDA-MB-231 breast) of 1.83 µM, a GI50 (MDA-MB-435) of 0.91 µM and a TGI (MDA-MB-435) of 1.76 µM. For the same compound, the GI50 (MOLT-4 leukemia) was 1.12 µM, the TGI (MOLT-4 leukemia) was 3.74 µM and the GI50 (NCI-H226 lung) was 3 µM. The TGI (NCI-H226 lung) was 9.35 µM, the GI50 (NCI-H23 lung) was 1.4 µM and the TGI (NCI-H23 lung) was 4.37 µM. It also gave a GI50 (NCI-H460 lung) of 0.966 µM, a TGI (NCI-H460 lung) of 1.86 µM and a GI50 (NCI-H522 lung) of 0.909 µM. The TGI (NCI-H522 lung) was 1.72 µM, the GI50 (NCI/ADR-RES ovarian) was 1.38 µM and the TGI (NCI/ADR-RES ovarian) was 3.96 µM. It also gave a GI50 (OVCAR-4 ovarian) of 1.01 µM, a TGI (OVCAR-4 ovarian) of 2.34 µM and a GI50 (OVCAR-5 ovarian) of 1.25 µM. It also gave a TGI (OVCAR-5 ovarian) of 3.31 µM, a GI50 (OVCAR-8 ovarian) of 0.966 µM and a TGI (OVCAR-8 ovarian) of 1.95 µM. The GI50 (PC-3 prostate) was 1.2 µM, the TGI (PC-3 prostate) was 3.49 µM and the GI50 (RPMI-8226 leukemia) was 1.03 µM. The TGI (RPMI-8226 leukemia) was 2.66 µM, the GI50 (RXF 393 renal) was 0.792 µM and the TGI (RXF 393 renal) was 1.59 µM. It also gave a GI50 (SF-268 CNS) of 0.941 µM, a TGI (SF-268 CNS) of 2.01 µM and a GI50 (SF-295 CNS) of 0.956 µM. It also gave a TGI (SF-295 CNS) of 1.93 µM, a GI50 (SF-539 CNS) of 0.86 µM and a TGI (SF-539 CNS) of 1.62 µM. For the same compound, the GI50 (SK-MEL-2 melanoma) was 0.853 µM, the TGI (SK-MEL-2 melanoma) was 1.61 µM and the GI50 (SK-MEL-28 melanoma) was 0.926 µM. The TGI (SK-MEL-28 melanoma) was 1.69 µM, the GI50 (SK-MEL-5 melanoma) was 0.9 µM and the TGI (SK-MEL-5 melanoma) was 1.64 µM. For the same compound, the GI50 (SK-OV-3 ovarian) was 1.11 µM, the TGI (SK-OV-3 ovarian) was 2.67 µM and the GI50 (SN12C renal) was 1.06 µM. It also gave a TGI (SN12C renal) of 2.37 µM, a GI50 (SNB-19 CNS) of 1.38 µM and a TGI (SNB-19 CNS) of 4.11 µM. For the same compound, the GI50 (SNB-75 CNS) was 2.11 µM, the TGI (SNB-75 CNS) was 4.48 µM and the GI50 (SR leukemia) was 0.173 µM. For the same compound, the TGI (SR leukemia) was 0.93 µM, the GI50 (SW-620 colon) was 0.853 µM and the TGI (SW-620 colon) was 1.64 µM. The GI50 (T-47D breast) was 0.829 µM, the TGI (T-47D breast) was 1.62 µM and the GI50 (TK-10 renal) was 2.92 µM. The TGI (TK-10 renal) was 7.14 µM, the GI50 (U251 CNS) was 0.834 µM and the TGI (U251 CNS) was 1.65 µM. For the same compound, the GI50 (UACC-257 melanoma) was 0.909 µM, the TGI (UACC-257 melanoma) was 1.71 µM and the GI50 (UACC-62 melanoma) was 0.912 µM. It also gave a TGI (UACC-62 melanoma) of 1.74 µM, a GI50 (UO-31 renal) of 0.818 µM and a TGI (UO-31 renal) of 1.67 µM.
